Test results published in patent US12458610B2, “Pharmaceutical composition for treating or preventing diabetic cataract” (KOREA UNIVERSITY RESEARCH AND BUSINESS FOUNDATION, priority 2019, dated 2025).

Experiments:
Type in all cases: in vivo, rat
[1] = Fasting blood sugar level in diabetes model rats, weekly by blood glucose meter; conditions: midodrine 1.0 mg/kg/day in drinking water (OLETF-M1.0), from week 9
Text: (§1) Otsuka Long-Evans Tokushima Fatty (OLETF) rats were used as a diabetes animal model of rats. The OLETF rats are widely used as a type 2 diabetes animal model because fat accumulation and hyperglycemia are induced in the body of the experimental animals and the pathological condition is similar to that of type 2 diabetes in human. Long-Evans Tokushima Otsuka (LETO) rats were used as a normal control group. The OLETF rats were divided into three groups depending on midodrine intake: OLETF, OLETF-M0.3 and OLETF-M1.0. The OLETF group was raised without intake of midodrine, the OLETF-M0.3 group was made to ingest 0.3 mg of midodrine every day per body weight (midodrine 0.3 mg/kg/day), and the OLETF-M1.0 group was made to ingest 1.0 mg of midodrine every day per body weight (midodrine 1.0 mg/kg/day). Midodrine was dissolved in drinking water so that the rats could ingest the corresponding daily dosage.
(§2) The experimental animals were divided into four groups: LETO, OLETF, OLETF-M0.3 and OLETF-M1.0, and all the experimental animals were raised for 12 weeks. During the 12 weeks, the OLETF-M0.3 group and the OLETF-M1.0 group were made to ingest midodrine every day.

[2] = Body weight change in diabetes model rats; conditions: OLETF rats; for body weight over time: raising period
Text: as §1, §2

[3] = system: Otsuka Long-Evans Tokushima Fatty (OLETF) rats; assay: Onset of cataract in lens by retroillumination imaging (LOCS III C1/P1 or higher); conditions: untreated OLETF 8 out of 12 eyes
Text: as §1, §2

[4] = system: Otsuka Long-Evans Tokushima Fatty (OLETF) rats; assay: Lens transparency: clarity of graph paper pattern seen through the lens (ImageJ); conditions: midodrine 0.3 mg/kg/day for 12 weeks (OLETF-M0.3), untreated OLETF significantly decreased
Text: as §1, §2

aldose reductase = assay: Aldose reductase level in lens by ELISA; conditions: OLETF rats, OLETF 38.4±3.1, LETO 37.2±2.8
Text: as §1, §2
(§3) The levels of aldose reductase, hexokinase and ATP in the lens sample were measured with a spectrophotometer (Spectramax Plus 384; Molecular Devices, Sunnyvale, CA, USA) by ELISA assay.

hexokinase = assay: Hexokinase level in lens by ELISA; conditions: OLETF rats, untreated OLETF significantly lower than LETO
Text: as §1, §2, §3

[5] = system: AMPK (AMP-activated protein kinase); assay: AMPK level in lens; conditions: OLETF rats, midodrine 0.3 mg/kg/day (OLETF-M0.3); OLETF 0.0509±0.0293 U/mL
ATP = ATP level in lens by ELISA; conditions: OLETF rats, OLETF 2.307±0.225, LETO 2.622±0.146
Text: as §1, §2, §3

TNFα = TNFα level in blood (plasma); conditions: OLETF rats, midodrine 0.3 mg/kg/day (OLETF-M0.3); OLETF 10.667±2.732, LETO 7.23±0.722
Text: as §1, §2

[6] = midodrine 0.3 mg/kg/day (OLETF-M0.3)
[7] = midodrine 1.0 mg/kg/day (OLETF-M1.0)

COc1ccc(OC)c(C(O)CNC(=O)CN)c1 (racemic) [midodrine, (RS)—N-[2-(2,5-dimethoxyphenyl)-2-hydroxyethyl]glycinamide]
fasting blood sugar level as compared to the OLETF group [1]: decreased slightly | body weight compared with the LETO group ([2]; midodrine 0.3 mg/kg/day (OLETF-M0.3), from week 9): no significant difference | body weight over time ([2]; midodrine 0.3 mg/kg/day in drinking water (OLETF-M0.3)): decreased slightly with time | body weight over time ([2]; midodrine 1.0 mg/kg/day in drinking water (OLETF-M1.0)): decreased slightly with time | eyes with cataract observed ([3]; midodrine 0.3 mg/kg/day for 12 weeks (OLETF-M0.3)): 1 out of 10 | eyes with cataract observed ([3]; midodrine 1.0 mg/kg/day for 12 weeks (OLETF-M1.0)): 2 out of 8 | lens transparency compared with the LETO group [4]: no significant difference | level of aldose reductase in lens (aldose reductase; [6]): 33.6±2.6 U/L | level of aldose reductase in lens (aldose reductase; [7]): 34.1±2.8 U/L | hexokinase level in lens as compared to the LETO group (hexokinase; [6]): no significant difference | hexokinase level in lens as compared to the LETO group (hexokinase; [7]): no significant difference | AMPK level in lens as compared to the OLETF group [5]: significantly increased | level of ATP in lens (ATP; [6]): 3.065 ± 0.202 ng/mL | level of ATP in lens (ATP; [7]): 3.025 ± 0.299 ng/mL | level of the inflammatory cytokine TNFα in blood (plasma) (TNFα): 5.383 ± 0.984 pg/mL
